Experiments:
[1] = target: T1, 20S Human Erythrocyte Proteasome (HEP) (Homo sapiens, UniProt P20618+P28074); assay: Chymotrypsin-like activity of 20S Human Erythrocyte Proteasome (HEP), IC50 determination; type: biochemical; settings: assay of Example C, inhibition of HEP
T1 construct: 20S Human Erythrocyte Proteasome (HEP), purchased from Immatics Biotechnologies Inc; purchased Immatics Biotechnologies Inc., Tübingen, Germany; host or cells: human erythrocytes (natural source)
Method in brief: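 20S proteasome at 0.2 μg/mL (about 0.6 nM catalytic sites) in 20 mM Tris with 0.04% SDS, preincubated 15 min at 37° C with inhibitor before Suc-LLVY-AMC (100 μM final). AMC fluorescence read in the linear range; triplicates, IC50 from concentration series.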

[2] = target: T2, proteasome in Molt-4 cells (human leukemia) (Homo sapiens, UniProt P20618+P28074); type: cell-based; settings: assay of Example E, inhibition of MOLT4; read-out: MOLT4 (EC50)
T2 sequence (P28074 60-263): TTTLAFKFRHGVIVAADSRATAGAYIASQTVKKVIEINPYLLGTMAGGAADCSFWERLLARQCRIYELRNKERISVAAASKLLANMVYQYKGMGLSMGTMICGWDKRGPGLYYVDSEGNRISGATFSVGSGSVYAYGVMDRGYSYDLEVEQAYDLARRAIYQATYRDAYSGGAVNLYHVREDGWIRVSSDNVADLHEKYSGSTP
T2 sequence (P20618 29-241): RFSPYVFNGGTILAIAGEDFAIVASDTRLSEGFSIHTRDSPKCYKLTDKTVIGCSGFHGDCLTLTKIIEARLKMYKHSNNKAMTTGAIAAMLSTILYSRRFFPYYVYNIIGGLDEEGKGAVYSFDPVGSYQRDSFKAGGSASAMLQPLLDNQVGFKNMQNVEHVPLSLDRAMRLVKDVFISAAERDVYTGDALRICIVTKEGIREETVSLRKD
Method in brief: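 Intact Molt-4 cells (6×10^6 cells/mL) in HEPES-buffered saline were preincubated with inhibitor 15 min at 37 °C, then given cell-permeable MeOSuc-FLF-AFC at 25 μM final.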

Row | SMILES | IC50 [1] | EC50 [2]
1 | CC(C)C[C@H](NC(=O)[C@H](CCCNC(=N)N[N+](=O)[O-])NC(=O)COc1ccc(C(C)C)cc1)B(O)O [D.7.5, Boronic acid, [(1R)-1-[[(2S)-5-[[imino(nitroamino)methyl]amino]-2-[(2-(4-isopropylphenoxy)acetyl)amino]-1-oxopentyl]amino]-3-methylbutyl]] | < 0.01 µM | 0.2 to 2 µM
2 | CC(C)C[C@H](NC(=O)[C@H](CCCNC(=N)N[N+](=O)[O-])NC(=O)CCCC(=O)c1ccccc1)B(O)O [D.7.6, Boronic acid, [(1R)-1-[[(2S)-5-[[imino(nitroamino)methyl]amino]-2-[(5-oxo-5-phenylpentanoyl)amino]-1-oxopentyl]amino]-3-methylbutyl]] | < 0.01 µM | > 10 µM
3 | CCN(CC)c1ccc(C(=O)N[C@@H](CCCNC(=N)N[N+](=O)[O-])C(=O)N[C@@H](CC(C)C)B(O)O)cc1 [D.7.8, Boronic acid, [(1R)-1-[[(2S)-5-[[imino(nitroamino)methyl]amino]-2-[(4-diethylaminobenzoyl)amino]-1-oxopentyl]amino]-3-methylbutyl]] | < 0.01 µM | > 10 µM
4 | CC(C)C[C@H](NC(=O)[C@H](CCCNC(=N)N[N+](=O)[O-])NC(=O)c1ccc(C(C)C)cc1)B(O)O [D.7.11, Boronic acid, [(1R)-1-[[(2S)-5-[[imino(nitroamino)methyl]amino]-2-[(4-isopropylbenzoyl)amino]-1-oxopentyl]amino]-3-methylbutyl]] | < 0.01 µM | 2 to 10 µM
5 | Cc1ccc(C(=O)N[C@@H](CCCNC(=N)N[N+](=O)[O-])C(=O)N[C@@H](CC(C)C)B(O)O)s1 [D.7.12, Boronic acid, [(1R)-1-[[(2S)-5-[[imino(nitroamino)methyl]amino]-2-[(5-methylthiophene-2-carbonyl)amino]-1-oxopentyl]amino]-3-methylbutyl]] | < 0.01 µM | > 10 µM
6 | Cc1ccc(C)c(OCCCC(C)(C)C(=O)N[C@@H](CCCNC(=N)N[N+](=O)[O-])C(=O)N[C@@H](CC(C)C)B(O)O)c1 [D.7.17, Boronic acid, [(1R)-1-[[(2S)-5-[[imino(nitroamino)methyl]amino]-2-[[5-(2,5-dimethylphenoxy)-2,2-dimethylpentanoyl]amino]-1-oxopentyl]amino]-3-methylbutyl]] | < 0.01 µM | 0.2 to 2 µM
7 | CC(C)C[C@H](NC(=O)[C@H](CCCNC(=N)N[N+](=O)[O-])NC(=O)CCCc1cccs1)B(O)O [D.7.19, Boronic acid, [(1R)-1-[[(2S)-5-[[imino(nitroamino)methyl]amino]-2-[[4-(thiophen-2-yl)butanoyl]amino]-1-oxopentyl]amino]-3-methylbutyl]] | < 0.01 µM | 2 to 10 µM
8 | CC(C)C[C@H](NC(=O)[C@H](CCCNC(=N)N[N+](=O)[O-])NC(=O)CCCCc1ccc(F)cc1)B(O)O [D.7.20, Boronic acid, [(1R)-1-[[(2S)-5-[[imino(nitroamino)methyl]amino]-2-[[5-(4-fluorophenyl)pentanoyl]amino]-1-oxopentyl]amino]-3-methylbutyl]] | < 0.01 µM | 2 to 10 µM
9 | CCCCC(C)(C)C(=O)N[C@@H](CCCNC(=N)N[N+](=O)[O-])C(=O)N[C@@H](CC(C)C)B(O)O [D.7.21, Boronic acid, [(1R)-1-[[(2S)-5-[[imino(nitroamino)methyl]amino]-2-[(2,2-dimethylhexanoyl)amino]-1-oxopentyl]amino]-3-methylbutyl]] | < 0.01 µM | 2 to 10 µM
10 | CC(C)C[C@H](NC(=O)[C@H](CCCNC(=N)N[N+](=O)[O-])NC(=O)/C=C/c1cccs1)B(O)O [D.7.23, Boronic acid, [(1R)-1-[[(2S)-5-[[imino(nitroamino)methyl]amino]-2-[[3-(thiophen-2-yl)propenoyl]amino]-1-oxopentyl]amino]-3-methylbutyl]] | < 0.01 µM | > 10 µM
11 | CC(C)C[C@H](NC(=O)[C@H](CCCNC(=N)N[N+](=O)[O-])NC(=O)CCCCC1CCCCC1)B(O)O [D.7.24, Boronic acid, [(1R)-1-[[(2S)-5-[[imino(nitroamino)methyl]amino]-2-[(5-cyclohexylpentanoyl)amino]-1-oxopentyl]amino]-3-methylbutyl]] | < 0.01 µM | 0.2 to 2 µM
12 | CC(C)=CCC[C@@H](C)CC(=O)N[C@@H](CCCNC(=N)N[N+](=O)[O-])C(=O)N[C@@H](CC(C)C)B(O)O [D.7.25, Boronic acid, [(1R)-1-[[(2S)-5-[[imino(nitroamino)methyl]amino]-2-[((3R)-3,7-dimethyloct-6-enoyl)amino]-1-oxopentyl]amino]-3-methylbutyl]] | < 0.01 µM | 2 to 10 µM
13 | Cc1ccc(CSCCC(=O)N[C@@H](CCCNC(=N)N[N+](=O)[O-])C(=O)N[C@@H](CC(C)C)B(O)O)cc1 [D.7.26, Boronic acid, [(1R)-1-[[(2S)-5-[[imino(nitroamino)methyl]amino]-2-[[3-[(4-methylbenzyl)sulfanyl]propanoyl]amino]-1-oxopentyl]amino]-3-methylbutyl]] | < 0.01 µM | 2 to 10 µM
14 | CC(C)C[C@H](NC(=O)[C@H](CCCNC(=N)N[N+](=O)[O-])NC(=O)c1ccc(-n2cccc2)cc1)B(O)O [D.7.27, Boronic acid, [(1R)-1-[[(2S)-5-[[imino(nitroamino)methyl]amino]-2-[(4-pyrrol-1-ylbenzoyl)amino]-1-oxopentyl]amino]-3-methylbutyl]] | < 0.01 µM | 2 to 10 µM
15 | COc1ccc(F)cc1C(=O)N[C@@H](CCCNC(=N)N[N+](=O)[O-])C(=O)N[C@@H](CC(C)C)B(O)O [D.7.28, Boronic acid, [(1R)-1-[[(2S)-5-[[imino(nitroamino)methyl]amino]-2-[(5-fluoro-2-methoxybenzoyl)amino]-1-oxopentyl]amino]-3-methylbutyl]] | < 0.01 µM | > 10 µM
16 | CC(C)C[C@H](NC(=O)[C@H](CCCNC(=N)N[N+](=O)[O-])NC(=O)C1CC1)B(O)O [D.7.30, Boronic acid, [(1R)-1-[[(2S)-5-[[imino(nitroamino)methyl]amino]-2-[(cyclopropanecarbonyl)amino]-1-oxopentyl]amino]-3-methylbutyl]] | < 0.1 µM | > 10 µM
17 | CCOc1ccc(C(=O)N[C@@H](CCCNC(=N)N[N+](=O)[O-])C(=O)N[C@@H](CC(C)C)B(O)O)cc1 [D.7.31, Boronic acid, [(1R)-1-[[(2S)-5-[[imino(nitroamino)methyl]amino]-2-[(4-ethoxybenzoyl)amino]-1-oxopentyl]amino]-3-methylbutyl]] | < 0.01 µM | > 10 µM
18 | CC(C)C[C@H](NC(=O)[C@H](CCCNC(=N)N[N+](=O)[O-])NC(=O)/C=C/c1ccc(Br)cc1)B(O)O [D.7.32, Boronic acid, [(1R)-1-[[(2S)-5-[[imino(nitroamino)methyl]amino]-2-[((E)-3-(4-bromophenyl)prop-2-enoyl)amino]-1-oxopentyl]amino]-3-methylbutyl]] | < 0.01 µM | 2 to 10 µM
19 | COc1ccc2cc([C@H](C)C(=O)N[C@@H](CCCNC(=N)N[N+](=O)[O-])C(=O)N[C@@H](CC(C)C)B(O)O)ccc2c1 [D.7.33, Boronic acid, [(1R)-1-[[(2S)-5-[[imino(nitroamino)methyl]amino]-2-[[(2S)-2-(6-methoxynaphthalen-2-yl)-propanoyl]amino]-1-oxopentyl]amino]-3-methylbutyl]] | < 0.01 µM | 2 to 10 µM
20 | COc1ccc(C(=O)N[C@@H](CCCNC(=N)N[N+](=O)[O-])C(=O)N[C@@H](CC(C)C)B(O)O)cc1F [D.7.35, Boronic acid, [(1R)-1-[[(2S)-5-[[imino(nitroamino)methyl]amino]-2-[(3-fluoro-4-methoxybenzoyl)amino]-1-oxopentyl]amino]-3-methylbutyl]] | < 0.01 µM | > 10 µM
21 | CC(C)C[C@H](NC(=O)[C@H](CCCNC(=N)N[N+](=O)[O-])NC(=O)/C=C/c1ccc2ccccc2c1)B(O)O [D.7.36, Boronic acid, [(1R)-1-[[(2S)-5-[[imino(nitroamino)methyl]amino]-2-[[(E)-3-(naphthalen-2-yl)prop-2-enoyl]amino]-1-oxopentyl]amino]-3-methylbutyl]] | < 0.01 µM | 2 to 10 µM
22 | Cc1cc(C(=O)N[C@@H](CCCNC(=N)N[N+](=O)[O-])C(=O)N[C@@H](CC(C)C)B(O)O)ccc1F [D.7.37] | < 0.01 µM | > 10 µM
23 | CC(C)C[C@H](NC(=O)[C@H](CCCNC(=N)N[N+](=O)[O-])NC(=O)CCCNC(=O)OCC1c2ccccc2-c2ccccc21)B(O)O [D.7.38, Boronic acid, [(1R)-1-[[(2S)-5-[[imino(nitroamino)methyl]amino]-2-[[[[[(9H-fluoren-9-yl)methoxy]carbonyl]amino]butanoyl]amino]-1-oxopentyl]amino]-3-methylbutyl]] | < 0.01 µM | 0.2 to 2 µM

— patent publication US8546608B2, “Proteasome inhibitors and methods of using the same” (Cephalon, Inc., priority 2003, dated 2013)
